Measured values: patent US20250034210A1, “DLL3 TARGETING PEPTIDES AND CONSTRUCTS THEREOF” (MARIANA ONCOLOGY INC., priority 2023, published 2025)
pKd: −log10 of the molar value. *1 amine or outer side, *2 acyl side, *3 side chain or, on linkers, in order; H or OH if unused. Where a SMILES comes first, the peptide text is derived from it. Bridges are numbered along the chain shown (N, C = ends). [ ]: non-standard residue; d: D form. The star is where a group is joined. DOTA = O=C(O)CN1CCN(CC(=O)O)CCN(CC(=O)*)CCN(CC(=O)O)CC1; Phe(2-CF3) = N[C@@H](Cc1ccccc1C(F)(F)F)C(=O)O; Pro(trans-4-F) = O=C(O)[C@@H]1C[C@@H](F)CN1; d(γGlu) = O=C(O)[C@@H](CCC(=O)[*:2])N[*:1]; Pro(cis-4-F) = O=C(O)[C@@H]1C[C@H](F)CN1; Pro(4R-NH2) = N[C@H]1CN[C@H](C(=O)O)C1; cisHyp = O=C(O)[C@@H]1C[C@H](O)CN1; Hyp = O=C(O)[C@@H]1C[C@@H](O)CN1; dNle = CCCC[C@@H](N)C(=O)O; Pip = O=C(O)[C@@H]1CCCCN1; Ahx = NCCCCCC(=O)O

biological target: T1, human DLL3 (Homo sapiens, UniProt Q9NYJ7); assay: Affinity determination by Surface Plasmon Resonance (SPR), biotinylated human DLL3 immobilized on streptavidin sensor chip; details: 25° C., Biacore, 1:1 binding model
T1 construct: biotin (biotinylated)
T1 sequence (Q9NYJ7 27-618): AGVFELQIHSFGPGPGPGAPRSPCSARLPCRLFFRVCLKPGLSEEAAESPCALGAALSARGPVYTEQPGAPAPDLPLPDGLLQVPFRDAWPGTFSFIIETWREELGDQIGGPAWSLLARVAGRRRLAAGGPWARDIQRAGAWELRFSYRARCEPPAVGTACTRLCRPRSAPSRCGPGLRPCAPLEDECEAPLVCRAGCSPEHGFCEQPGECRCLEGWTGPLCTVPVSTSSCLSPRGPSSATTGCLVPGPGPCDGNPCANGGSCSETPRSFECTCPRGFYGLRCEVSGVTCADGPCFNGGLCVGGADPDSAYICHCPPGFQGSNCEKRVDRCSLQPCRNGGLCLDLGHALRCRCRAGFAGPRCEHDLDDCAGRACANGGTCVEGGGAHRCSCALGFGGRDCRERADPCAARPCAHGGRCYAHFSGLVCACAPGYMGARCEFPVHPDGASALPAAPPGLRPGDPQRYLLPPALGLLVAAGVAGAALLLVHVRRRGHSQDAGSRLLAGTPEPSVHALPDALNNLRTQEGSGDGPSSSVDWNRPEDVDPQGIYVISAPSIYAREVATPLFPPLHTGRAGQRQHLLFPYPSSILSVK
Method: Affinity Determination by Surface Plasmon Resonance (SPR). SPR studies were performed on the compounds disclosed herein using the following protocol.
The binding affinity and binding kinetic parameters at 25° C. were determined using Biacore S200 or biacore 8K instrument. Biotinylated target ligand human DLL3 was immobilized on a streptavidin sensor chip. A reference surface was set up for nonspecific binding and refractive index changes. For analysis of the kinetics of interactions, varying concentrations of samples were injected at a flow rate of 100 μL/min using running buffer containing 20 mM phosphate buffer with 2.7 mM KCl, 137 mM NaCl, 0.05% Surfactant P20 and 2% DMSO. Sensorgram curves were fitted with 1:1 binding model, and affinity and kinetic parameters were obtained using Biacore Insight evaluation 4.0. software.

Row | Compound | pKd
1 | CC[C@H](C)[C@H](NC(=O)[C@@H](NC(=O)[C@H](Cc1c[nH]c2ccccc12)NC(=O)CCCCCNC(=O)CN1CCN(CC(=O)O)CCN(CC(=O)O)CCN(CC(=O)O)CC1)[C@@H](C)O)C(=O)N[C@H]1CSSC[C@@H](C(=O)N[C@@H](Cc2c[nH]c3ccccc23)C(=O)N2C[C@H](F)C[C@H]2C(N)=O)NC(=O)[C@H](CC(=O)O)NC(=O)[C@H](Cc2cnc[nH]2)NC(=O)[C@H](Cc2c[nH]c3ccccc23)NC(=O)[C@H](CC(N)=O)NC(=O)[C@H](CC(N)=O)NC1=O [compound 66, DOTA-Ahx-W-T-I-C(3)-N-N-W-H-D-C(3)-W-(trans4Fluoro-P)-CONH2] ({DOTA-Ahx}-WTICNNWHDCW[Pro(trans-4-F)]-NH2; disulfide 4-10) | 8.00 to 9.00
2 | CC[C@H](C)[C@H](NC(=O)[C@@H](NC(=O)[C@H](Cc1c[nH]c2ccccc12)NC(=O)CCCCCNC(=O)CN1CCN(CC(=O)O)CCN(CC(=O)O)CCN(CC(=O)O)CC1)[C@@H](C)O)C(=O)N[C@H]1CSSC[C@@H](C(=O)N[C@@H](Cc2c[nH]c3ccccc23)C(=O)N2C[C@@H](F)C[C@H]2C(N)=O)NC(=O)[C@H](CC(=O)O)NC(=O)[C@H](Cc2cnc[nH]2)NC(=O)[C@H](Cc2c[nH]c3ccccc23)NC(=O)[C@H](CC(N)=O)NC(=O)[C@H](CC(N)=O)NC1=O [compound 67, DOTA-Ahx-W-T-I-C(3)-N-N-W-H-D-C(3)-W-(Cis4Fluoro-P)-CONH2] ({DOTA-Ahx}-WTICNNWHDCW[Pro(cis-4-F)]-NH2; disulfide 4-10) | 6.52 to 7.00
3 | CC[C@H](C)[C@H](NC(=O)[C@@H](NC(=O)[C@H](Cc1c[nH]c2ccccc12)NC(=O)CCCCCNC(=O)CN1CCN(CC(=O)O)CCN(CC(=O)O)CCN(CC(=O)O)CC1)[C@@H](C)O)C(=O)N[C@H]1CSSC[C@@H](C(=O)N[C@@H](Cc2c[nH]c3ccccc23)C(=O)N2C[C@H](O)C[C@H]2C(N)=O)NC(=O)[C@H](CC(=O)O)NC(=O)[C@H](Cc2cnc[nH]2)NC(=O)[C@H](Cc2c[nH]c3ccccc23)NC(=O)[C@H](CC(N)=O)NC(=O)[C@H](CC(N)=O)NC1=O [compound 68, DOTA-Ahx-W-T-I-C(3)-N-N-W-H-D-C(3)-W-(trans4OH-P)-CONH2] ({DOTA-Ahx}-WTICNNWHDCW[Hyp]-NH2; disulfide 4-10) | 7.00 to 8.00
4 | CC[C@H](C)[C@H](NC(=O)[C@@H](NC(=O)[C@H](Cc1c[nH]c2ccccc12)NC(=O)CCCCCNC(=O)CN1CCN(CC(=O)O)CCN(CC(=O)O)CCN(CC(=O)O)CC1)[C@@H](C)O)C(=O)N[C@H]1CSSC[C@@H](C(=O)N[C@@H](Cc2c[nH]c3ccccc23)C(=O)N2C[C@@H](O)C[C@H]2C(N)=O)NC(=O)[C@H](CC(=O)O)NC(=O)[C@H](Cc2cnc[nH]2)NC(=O)[C@H](Cc2c[nH]c3ccccc23)NC(=O)[C@H](CC(N)=O)NC(=O)[C@H](CC(N)=O)NC1=O [compound 69, DOTA-Ahx-W-T-I-C(3)-N-N-W-H-D-C(3)-W-(cis4OH-P)-CONH2] ({DOTA-Ahx}-WTICNNWHDCW[cisHyp]-NH2; disulfide 4-10) | 6.52 to 7.00
5 | CC[C@H](C)[C@H](NC(=O)[C@@H](NC(=O)[C@H](Cc1c[nH]c2ccccc12)NC(=O)CCCCCNC(=O)CN1CCN(CC(=O)O)CCN(CC(=O)O)CCN(CC(=O)O)CC1)[C@@H](C)O)C(=O)N[C@H]1CSSC[C@@H](C(=O)N[C@@H](Cc2c[nH]c3ccccc23)C(=O)N2CCCC[C@H]2C(N)=O)NC(=O)[C@H](CC(=O)O)NC(=O)[C@H](Cc2cnc[nH]2)NC(=O)[C@H](Cc2c[nH]c3ccccc23)NC(=O)[C@H](CC(N)=O)NC(=O)[C@H](CC(N)=O)NC1=O [compound 70, DOTA-Ahx-W-T-I-C(3)-N-N-W-H-D-C(3)-W-(Pip)-CONH2] ({DOTA-Ahx}-WTICNNWHDCW[Pip]-NH2; disulfide 4-10) | 7.00 to 8.00
6 | CC[C@H](C)[C@H](NC(=O)[C@@H](NC(=O)[C@H](Cc1c[nH]c2ccccc12)NC(=O)CCCCCNC(=O)CN1CCN(CC(=O)O)CCN(CC(=O)O)CCN(CC(=O)O)CC1)[C@@H](C)O)C(=O)N[C@H]1CSSC[C@@H](C(=O)N[C@@H](Cc2c[nH]c3ccccc23)C(=O)N2C[C@H](N)C[C@H]2C(N)=O)NC(=O)[C@H](CC(=O)O)NC(=O)[C@H](Cc2cnc[nH]2)NC(=O)[C@H](Cc2c[nH]c3ccccc23)NC(=O)[C@H](CC(N)=O)NC(=O)[C@H](CC(N)=O)NC1=O [compound 224, DOTA-Ahx-W-T-I-C(3)-N-N-W-H-D-C(3)-W-(trans4NH2-P)-CONH2] ({DOTA-Ahx}-WTICNNWHDCW[Pro(4R-NH2)]-NH2; disulfide 4-10) | 7.00 to 8.00

Second part, the compound after the results:

Row | pKd | Compound
7 | 8.00 to 9.00 | C[C@@H](O)[C@H](NC(=O)[C@H](Cc1c[nH]c2ccccc12)NC(=O)CCCCCNC(=O)CN1CCN(CC(=O)O)CCN(CC(=O)O)CCN(CC(=O)O)CC1)C(=O)N[C@@H](Cc1ccccc1C(F)(F)F)C(=O)N[C@H]1CSSC[C@@H](C(=O)N[C@@H](Cc2c[nH]c3ccccc23)C(=O)N2CCC[C@H]2C(N)=O)NC(=O)[C@H](CC(=O)O)NC(=O)[C@H](Cc2cnc[nH]2)NC(=O)[C@H](Cc2c[nH]c3ccccc23)NC(=O)[C@H](CC(N)=O)NC(=O)[C@H](CC(N)=O)NC1=O [compound 65, DOTA-Ahx-W-T-(2CF3-F)-C(3)-N-N-W-H-D-C(3)-W-P-CONH2] ({DOTA-Ahx}-WT[Phe(2-CF3)]CNNWHDCWP-NH2; disulfide 4-10)
8 | 7.00 to 8.00 | CC[C@H](C)[C@H](NC(=O)[C@@H](NC(=O)[C@H](Cc1c[nH]c2ccccc12)NC(=O)[C@@H](CCCCNC(=O)CN1CCN(CC(=O)O)CCN(CC(=O)O)CCN(CC(=O)O)CC1)NC(C)=O)[C@@H](C)O)C(=O)N[C@H]1CSSC[C@@H](C(=O)N[C@@H](Cc2c[nH]c3ccccc23)C(=O)N2CCC[C@H]2C(N)=O)NC(=O)[C@H](CC(=O)O)NC(=O)[C@H](Cc2c[nH]cn2)NC(=O)[C@H](Cc2c[nH]c3ccccc23)NC(=O)[C@H](CC(N)=O)NC(=O)[C@H](CC(N)=O)NC1=O [compound 73, Ac-D-Lys(DOTA)-W-T-I-C(3)-N-N-W-H-D-C(3)-W-P-CONH2] (Ac-[dK](DOTA)WTICNNWHDCWP-NH2; disulfide 5-11)
9 | 8.00 to 9.00 | CCCC[C@@H](NC(=O)[C@@H]1CCCN1C(=O)[C@H](Cc1c[nH]c2ccccc12)NC(=O)[C@@H]1CSSC[C@H](NC(=O)[C@@H](NC(=O)[C@@H](NC(=O)[C@H](Cc2c[nH]c3ccccc23)NC(=O)CCCCCNC(=O)CN2CCN(CC(=O)O)CCN(CC(=O)O)CCN(CC(=O)O)CC2)[C@@H](C)O)[C@@H](C)CC)C(=O)N[C@@H](CC(N)=O)C(=O)N[C@@H](CC(N)=O)C(=O)N[C@@H](Cc2c[nH]c3ccccc23)C(=O)N[C@@H](Cc2cnc[nH]2)C(=O)N[C@@H](CC(=O)O)C(=O)N1)C(N)=O [compound 163, DOTA-Ahx-W-T-I-C(3)-N-N-W-H-D-C(3)-W-P-(D-Nle)-NH2] ({DOTA-Ahx}-WTICNNWHDCWP[dNle]-NH2; disulfide 4-10)
10 | 7.00 to 8.00 | CC[C@H](C)[C@H](NC(=O)[C@@H](NC(=O)[C@H](Cc1c[nH]c2ccccc12)NC(=O)CC[C@@H](NC(=O)CC[C@@H](NC(=O)CC[C@@H](NC(=O)CN1CCN(CC(=O)O)CCN(CC(=O)O)CCN(CC(=O)O)CC1)C(=O)O)C(=O)O)C(=O)O)[C@@H](C)O)C(=O)N[C@H]1CSSC[C@@H](C(=O)N[C@@H](Cc2c[nH]c3ccccc23)C(=O)N2CCC[C@H]2C(=O)O)NC(=O)[C@H](CC(=O)O)NC(=O)[C@H](Cc2c[nH]cn2)NC(=O)[C@H](Cc2c[nH]c3ccccc23)NC(=O)[C@H](CC(N)=O)NC(=O)[C@H](CC(N)=O)NC1=O [compound 221, DOTA-(D-gE)3-W-T-I-C(3)-N-N-W-H-D-C(3)-W-P-CONH2] ({DOTA-d(γGlu)-d(γGlu)-d(γGlu)}-WTICNNWHDCWP-OH; disulfide 4-10)
